Reference: ChEMBL document CHEMBL5154728, “Design and synthesis of novel quinazolinone derivatives as anti-HBV agents with TLR8 agonist effect” (Eur J Med Chem, 2022)

Assays:
[1] = Antiviral activity against lamivudine/entecavir- resistant Hepatitis B virus infected in human HepG2 A64 cells assessed as inhibition of DNA replication; assay type: functional, cell-based
Hepatitis B virus [2] = experiment: Antiviral activity against lamivudine/entecavir-resistant Hepatitis B virus infected in human HepG2 A64 cells assessed as inhibition of DNA replication at 1 uM incubated for 72 hrs by RT PCR analysis; assay type: functional, organism-based; conditions: for IC50: HepG2.A64, 72 h; for inhibition at 1 µM: HepG2.A64, dose 1 µM, time 72 hrs
Hepatitis B virus [3] = experiment: Antiviral activity against wild type Hepatitis B virus infected in human HepG2.2.2.15 cells assessed as inhibition of DNA replication at 1 uM incubated for 72 hrs by RT PCR analysis; assay type: functional
[4] = Cytotoxicity against human HepG2 2.2.15 cells infected with Hepatitis B virus assessed as reduction in cell growth by CCK8 assay; assay type: toxicity, cell-based
[5] = Selectivity index, ratio of CC50 for human HepG2.2.2.15 cells to IC50 for Hepatitis B virus infected in human HepG2.2.2.15 cells; assay type: toxicity, cell-based; conditions: read-out: Selectivity Index
[6] = Selectivity index, ratio of CC50 for human HepG2.2.2.15 cells to IC50 for lamivudine/entecavir-resistant Hepatitis B virus infected in human HepG2 A64 cells; assay type: toxicity, cell-based; conditions: HepG2.2.2.15 cells (CC50), read-out: Selectivity Index
[7] = Antiviral activity against Hepatitis B virus infected in human HepG2 2.2.15 cells assessed as inhibition of DNA replication; assay type: functional, cell-based
[8] = biological target: T1, Toll-like receptor 8 (Homo sapiens) (UniProt Q9NR97); experiment: Agonist activity at human TLR8 expressed in HEK293T cells co-transfected with NFKappaB luciferase and renilla plasmids assessed as NF-kappaB activation measured after 48 hrs by dual-luciferase reporter gene assay; assay type: cell-based; conditions: filed as agonist, DDE = dose-dependent effect
T1 sequence (whole entry): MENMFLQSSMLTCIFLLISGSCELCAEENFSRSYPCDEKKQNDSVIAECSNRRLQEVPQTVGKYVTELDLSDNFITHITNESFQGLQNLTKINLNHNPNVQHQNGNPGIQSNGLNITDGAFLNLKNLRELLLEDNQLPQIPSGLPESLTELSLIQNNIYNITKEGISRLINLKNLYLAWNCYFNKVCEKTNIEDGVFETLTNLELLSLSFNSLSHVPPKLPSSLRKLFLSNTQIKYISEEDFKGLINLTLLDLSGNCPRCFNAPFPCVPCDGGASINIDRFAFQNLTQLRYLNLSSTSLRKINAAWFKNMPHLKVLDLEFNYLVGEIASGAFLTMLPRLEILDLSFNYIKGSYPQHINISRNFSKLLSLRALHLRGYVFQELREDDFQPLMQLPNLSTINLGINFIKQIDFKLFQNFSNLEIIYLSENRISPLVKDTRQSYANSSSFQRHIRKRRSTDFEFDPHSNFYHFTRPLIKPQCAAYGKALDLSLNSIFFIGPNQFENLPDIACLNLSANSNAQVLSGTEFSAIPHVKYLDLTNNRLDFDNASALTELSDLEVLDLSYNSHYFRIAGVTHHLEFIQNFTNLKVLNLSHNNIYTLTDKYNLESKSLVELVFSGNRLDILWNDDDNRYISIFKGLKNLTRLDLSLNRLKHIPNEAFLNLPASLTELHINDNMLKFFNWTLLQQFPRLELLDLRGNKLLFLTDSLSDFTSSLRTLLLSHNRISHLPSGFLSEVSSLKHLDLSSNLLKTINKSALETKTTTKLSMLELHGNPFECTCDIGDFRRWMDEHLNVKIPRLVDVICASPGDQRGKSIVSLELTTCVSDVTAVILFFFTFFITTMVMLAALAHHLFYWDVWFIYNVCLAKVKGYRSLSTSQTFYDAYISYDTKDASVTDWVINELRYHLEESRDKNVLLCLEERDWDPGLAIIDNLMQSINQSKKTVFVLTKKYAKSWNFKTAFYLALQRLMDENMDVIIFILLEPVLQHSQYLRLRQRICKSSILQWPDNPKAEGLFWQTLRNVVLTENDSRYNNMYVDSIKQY

Row | IC50 [7] [µM] | Compound | CC50 [4] [µM] | selectivity ratio [5] | also measured
1 | – | Nc1nccc(OCCCOc2ccc3nc(SCc4ccccc4)n(Cc4cccs4)c(=O)c3c2)n1 | > 10 | – | –
2 | – | Nc1nccc(OCCCOc2ccc3nc(SCc4cccc(F)c4)n(Cc4ccccc4)c(=O)c3c2)n1 | > 10 | – | –
3 | 0.63 | CN1CCN(CCCOc2ccc3nc(SCc4ccccc4)n(Cc4ccco4)c(=O)c3c2)CC1 | > 10 | > 15.9 | –
4 | – | Nc1nccc(OCCCOc2ccc3nc(SCc4ccccc4)n(CC4CCCCC4)c(=O)c3c2)n1 | > 10 | – | –
5 | – | Nc1nccc(OCCCOc2ccc3nc(SCc4ccc(F)cc4)n(Cc4ccccc4)c(=O)c3c2)n1 | > 10 | – | –
6 | – | Nc1nccc(OCCCOc2ccc3nc(SCc4ccccc4)n(Cc4ccccc4)c(=O)c3c2)n1 | > 10 | – | –
7 | – | COc1ccccc1CSc1nc2ccc(OCCCN3CCC(O)CC3)cc2c(=O)n1Cc1ccco1 | > 10 | – | –
8 | 0.99 | CN1CCN(CCCOc2ccc3nc(SCc4cccc(F)c4)n(Cc4ccco4)c(=O)c3c2)CC1 | 4.22 | > 4.26 | –
9 | – | COc1ccccc1CSc1nc2ccc(OCCCN3CCN(C)CC3)cc2c(=O)n1Cc1ccco1 | > 10 | – | –
10 | – | Nc1nccc(OCCOc2ccc3nc(SCc4ccccc4)n(Cc4ccco4)c(=O)c3c2)n1 | 1.25 | – | –
11 | – | CN1CCN(CCCOc2ccc3nc(SCc4ccc(F)cc4)n(Cc4ccco4)c(=O)c3c2)CC1 | 2.9 | – | –
12 | – | O=c1c2cc(OCCCN3CCC(O)CC3)ccc2nc(SCc2ccc(F)cc2)n1Cc1ccco1 | > 10 | – | –
13 | – | Nc1nccc(OCCCCOc2ccc3nc(SCc4ccccc4)n(Cc4ccco4)c(=O)c3c2)n1 | > 10 | – | –
14 | 0.83 | CCN(CC)CCOc1ccc2nc(SCc3ccccc3)n(Cc3cccs3)c(=O)c2c1 | > 10 | 22.9 | –
15 | 0.87 | O=c1c2cc(OCCCN3CCC(O)CC3)ccc2nc(SCc2cccc(F)c2)n1Cc1ccco1 | 1.83 | > 2.17 | –
16 | 0.7 | O=c1c2cc(OCCCN3CCC(O)CC3)ccc2nc(SCc2ccccc2)n1Cc1ccco1 | > 10 | > 14.3 | –

Row | Compound | IC50 [7] [µM] | CC50 [4] [µM] | selectivity ratio [5] | also measured
17 | Nc1nccc(OCCCOc2ccc3nc(SCc4ccccc4)n(Cc4ccco4)c(=O)c3c2)n1 | 0.31 | > 10 | > 32.2 | IC50 [1]: 0.21 µM; IC50 (Hepatitis B virus [2]): 0.24 µM; inhibition at 1 µM (Hepatitis B virus [2]): 75.3%; inhibition at 1 µM (Hepatitis B virus [3]): 79.3%; selectivity ratio [6]: > 41.7
18 | COc1ccccc1CSc1nc2ccc(OCCCOc3ccnc(N)n3)cc2c(=O)n1Cc1ccco1 | 0.15 | > 10 | > 66.7 | IC50 [1]: 0.1 µM; Activity [8]: Dde; IC50 (Hepatitis B virus [2]): 0.1 µM; inhibition at 1 µM (Hepatitis B virus [2]): 77.3%; inhibition at 1 µM (Hepatitis B virus [3]): 80.9%; selectivity ratio [6]: > 100
19 | Nc1ccn([C@@H]2CS[C@H](CO)O2)c(=O)n1 [LAMIVUDINE] | < 0.1 | > 100 | > 1000 | IC50 [1]: > 100 µM
